Test results: patent publication US20220338504A1 (priority 2017, published 2022)
Where two headings read alike, the source gives them in different places. Marks after values point to notes of the source that are not given here.

How the values were obtained:
[1] = test system: C. perfringens; assay type: in vivo, broilers (male Ross×Ross chicks); conditions: Virginiamycin 20 g/ton, formulated yeast 0.5 lb/ton, ground pepper 0.3 lb/ton, combination 0.3 + 0.5 lb/ton
[2] = test system: C. perfringens; assay type: in vivo, broilers (male Ross×Ross chicks); conditions: 20 g/ton
[3] = test system: E. maxima and C. perfringens; assay type: in vivo, broilers (male Cobb×Cobb chicks)
[4] = test system: E. maxima and C. perfringens; assay type: in vivo, broilers (male Cobb×Cobb chicks); remark: listed apart in the source
[5] = test system: E. maxima and C. perfringens; assay type: in vivo, broilers (male Cobb×Cobb chicks); conditions: challenged, BMD 50.0 g/ton, encapsulated ground pepper 300 g/ton
[6] = test system: Clostridium perfringens strain #6 (with coccidia / E. maxima); assay type: in vivo, broilers (male Ross×Ross chicks)
[7] = test system: E. maxima and C. perfringens; assay type: in vivo, broilers (male Cobb×Cobb chicks); remark: listed apart in the source
[8] = test system: E. maxima and C. perfringens; assay type: in vivo, broilers (male Cobb×Cobb chicks); remark: listed apart in the source
[9] = 0-21 d, challenged, BMD 50.0 g/ton, combination 4.0 lb/ton + 3 × 10^5 cfu/g
[10] = 0-28 d, challenged, BMD 50.0 g/ton, combination 4.0 lb/ton + 3 × 10^5 cfu/g
[11] = 14-21 d, challenged, BMD 50.0 g/ton, combination 4.0 lb/ton + 3 × 10^5 cfu/g
[12] = 14-28 d, challenged, BMD 50.0 g/ton, combination 4.0 lb/ton + 3 × 10^5 cfu/g
[13] = 0-21 d, challenged, BMD 50.0 g/ton, combination 0.3 lb/ton + 3 × 10^5 cfu/g
[14] = 0-28 d, challenged, BMD 50.0 g/ton, combination 0.3 lb/ton + 3 × 10^5 cfu/g
[15] = 14-21 d, challenged, BMD 50.0 g/ton, combination 0.3 lb/ton + 3 × 10^5 cfu/g
[16] = 14-28 d, challenged, BMD 50.0 g/ton, combination 0.3 lb/ton + 3 × 10^5 cfu/g
[17] = 0-21 d, challenged, BMD 50.0 g/ton, combination 0.5 lb/ton + 3 × 10^5 cfu/g
[18] = 0-28 d, challenged, BMD 50.0 g/ton, combination 0.5 lb/ton + 3 × 10^5 cfu/g
[19] = 14-21 d, challenged, BMD 50.0 g/ton, combination 0.5 lb/ton + 3 × 10^5 cfu/g
[20] = 14-28 d, challenged, BMD 50.0 g/ton, combination 0.5 lb/ton + 3 × 10^5 cfu/g
[21] = 0-21 d, challenged, BMD 50.0 g/ton, combination 0.30 lb/ton + 0.5 lb/ton + 3 × 10^5 cfu/g
[22] = 0-28 d, challenged, BMD 50.0 g/ton, combination 0.30 lb/ton + 0.5 lb/ton + 3 × 10^5 cfu/g
[23] = 14-21 d, challenged, BMD 50.0 g/ton, combination 0.30 lb/ton + 0.5 lb/ton + 3 × 10^5 cfu/g
[24] = 14-28 d, challenged, BMD 50.0 g/ton, combination 0.30 lb/ton + 0.5 lb/ton + 3 × 10^5 cfu/g

Virginiamycin
Body weight gain ([1]; 15 d): 0.38 kg | Feed Conversion ([1]; 15 d): 1.32^xy | Feed consumption ([1]; 15 d): 0.44^ab Kg | Body weight gain ([1]; 35 d): 1.57^xy Kg | Feed Conversion ([1]; 35 d): 1.73 | Feed consumption ([1]; 35 d): 2.62 kg | Body weight gain ([1]; 42 d): 2.17 kg | Feed Conversion ([1]; 42 d): 1.76 | Feed consumption ([1]; 42 d): 3.70 kg | Necrotic enteritis related mortality, % [1]: 3.50% | Total Mortality % [1]: 0.50% | Total Mortality % [2]: 5.36% | Body weight gain ([2]; 15 d): 0.33 kg | Feed Conversion ([2]; 15 d): 1.33^b | Feed consumption ([2]; 15 d): 0.39 kg | Body weight gain ([2]; 35 d): 1.10^ab Kg | Feed Conversion ([2]; 35 d): 1.62^abc | Feed consumption ([2]; 35 d): 1.73^x Kg | Body weight gain ([2]; 42 d): 2.27 kg | Feed Conversion ([2]; 42 d): 1.74^abc | Feed consumption ([2]; 42 d): 3.90^xy Kg

bacitracin methylene disalycilate [BMD]
Body weight gain [3, 9]: 0.57^a Kg | Feed Conversion [3, 9]: 1.53^c | Feed consumption [3, 9]: 0.87 kg | Body weight gain [3, 10]: 0.81^a Kg | Feed Conversion [3, 10]: 1.60^b | Feed consumption [3, 10]: 1.30 kg | Body weight gain [3, 11]: 0.32^ab Kg | Feed Conversion [3, 11]: 1.72^b | Feed consumption [3, 11]: 0.55 kg | Body weight gain [3, 12]: 0.56^a Kg | Feed Conversion [3, 12]: 1.75^b | Feed consumption [3, 12]: 0.98^a Kg | Necrotic enteritis lesion score ([3]; DOT 21, 0 to 3 score, challenged, BMD 50.0 g/ton, combination 4.0 lb/ton + 3 × 10^5 cfu/g): 0.79^b | Necrotic enteritis lesion score compared to the challenged control birds ([3]; P<0.05): lower | Necrotic enteritis related mortality, % ([3]; challenged, BMD 50.0 g/ton, combination 4.0 lb/ton + 3 × 10^5 cfu/g): 0.0^b % | overall FCR compared to the challenged control birds ([3]; d 0-28): reduced | overall body weight gain compared to the challenged control birds ([3]; d 0-28): increased | FCR compared to the challenge control birds ([3]; d 14-28, P<0.05): decreased | body weight gain compared to the challenge control birds ([3]; d 14-28, P<0.05): increased | controlling C. perfringens disease challenge ([3]; in vivo): effective | necrotic enteritis mortality compared to the challenged control group ([3]; in vivo): lower | Body weight gain [4, 13]: 0.66^a Kg | Feed Conversion [4, 13]: 1.62^ab | Feed consumption [4, 13]: 1.07 kg | Body weight gain [4, 14]: 0.92^ab Kg | Feed Conversion [4, 14]: 1.67^a | Feed consumption [4, 14]: 1.54 kg | Body weight gain [4, 15]: 0.30^b Kg | Feed Conversion [4, 15]: 1.95^b | Feed consumption [4, 15]: 0.58 kg | Body weight gain [4, 16]: 0.56^ab Kg | Feed Conversion [4, 16]: 1.93^b | Feed consumption [4, 16]: 1.08 kg | Necrotic enteritis lesion score ([4]; DOT 21, 0 to 3 score, challenged, BMD 50.0 g/ton, combination 0.3 lb/ton + 3 × 10^5 cfu/g): 0.50^b | Necrotic enteritis lesion score compared to the challenged control birds ([4]; P<0.05): lower | Necrotic enteritis related mortality, % ([4]; challenged, BMD 50.0 g/ton, combination 0.3 lb/ton + 3 × 10^5 cfu/g): 0.0% | overall body weight gain compared to the challenged control ([4]; d 0-28): increased | FCR compared to the challenge control birds ([4]; d 14-28, P<0.05): decreased | body weight gain compared to the challenge control birds ([4]; d 14-28, P<0.05): increased | controlling C. perfringens disease challenge ([4]; in vivo): effective | Body weight gain ([5]; 0-21 d): 0.44 kg | Feed Conversion ([5]; 0-21 d): 1.79^ab | Feed consumption ([5]; 0-21 d): 0.79 kg | Body weight gain ([5]; 0-28 d): 0.65 kg | Feed Conversion ([5]; 0-28 d): 1.88^b | Feed consumption ([5]; 0-28 d): 1.22 kg | Body weight gain ([5]; 14-21 d): 0.16^b Kg | Feed Conversion ([5]; 14-21 d): 2.56^b | Feed consumption ([5]; 14-21 d): 0.41 kg | Body weight gain ([5]; 14-28 d): 0.37^ab Kg | Feed Conversion ([5]; 14-28 d): 2.58^b | Feed consumption ([5]; 14-28 d): 0.95 kg | Necrotic enteritis lesion score ([5]; DOT 21, 0 to 3 score, 0 normal, 3 most severe): 1.1^b | Necrotic enteritis related mortality, % [5]: 28.1^b % | FCR compared to birds fed with no feed additive ([6]; 28 days of age, P<0.05): decreased | body weight gain compared to birds fed with no feed additive ([6]; 28 days of age, P<0.05): increased | Body weight gain compared to the control fed birds ([6]; 41 days of age, P<0.05): increased | FCR compared to the no feed additive control group ([6]; 41 days of age, P<0.05): decreased | Necrotic enteritis lesion score compared to the no feed additive control fed birds ([6]; in vivo): numerically reduced | controlling C. perfringens disease challenge ([6]; in vivo): effective | necrotic enteritis related mortality compared to the no feed additive control fed birds ([6]; in vivo): numerically reduced | Body weight gain [7, 17]: 0.34^a Kg | Feed Conversion [7, 17]: 2.21^b | Feed consumption [7, 17]: 0.75 kg | Body weight gain [7, 18]: 0.57 kg | Feed Conversion [7, 18]: 2.08^b | Feed consumption [7, 18]: 1.19 kg | Body weight gain [7, 19]: 0.15^bc Kg | Feed Conversion [7, 19]: 2.30^b | Feed consumption [7, 19]: 0.34 kg | Body weight gain [7, 20]: 0.38^ab Kg | Feed Conversion [7, 20]: 2.05^b | Feed consumption [7, 20]: 0.78 kg | Necrotic enteritis lesion score ([7]; DOT 21, 0 to 3 score, challenged, BMD 50.0 g/ton, combination 0.5 lb/ton + 3 × 10^5 cfu/g): 0.3^c | Necrotic enteritis lesion score compared to the challenged control birds ([7]; P<0.05): lower | necrotic enteritis mortality compared to the challenged control group ([7]; P<0.05): decreased | Necrotic enteritis related mortality, % ([7]; challenged, BMD 50.0 g/ton, combination 0.5 lb/ton + 3 × 10^5 cfu/g): 3^b % | overall FCR compared to the challenged control birds ([7]; d 0-28, P<0.05): decreased | body weight gain compared to the challenge control birds ([7]; d 14-28): similar | FCR compared to the challenge control birds ([7]; d 14-28, P<0.05): decreased | controlling C. perfringens disease challenge ([7]; in vivo): effective | Body weight gain [8, 21]: 0.52^ab Kg | Feed Conversion [8, 21]: 1.81^a | Feed consumption [8, 21]: 0.94 kg | Body weight gain [8, 22]: 0.77 kg | Feed Conversion [8, 22]: 1.78^b | Feed consumption [8, 22]: 1.37 kg | Body weight gain [8, 23]: 0.28^b Kg | Feed Conversion [8, 23]: 1.77^b | Feed consumption [8, 23]: 0.49 kg | Body weight gain [8, 24]: 0.53 kg | Feed Conversion [8, 24]: 1.73^bc | Feed consumption [8, 24]: 0.91 kg | Necrotic enteritis lesion score ([8]; DOT 21, 0 to 3 score, challenged, BMD 50.0 g/ton, combination 0.30 lb/ton + 0.5 lb/ton + 3 × 10^5 cfu/g): 0.5^b | Necrotic enteritis lesion scores compared to the challenged control birds ([8]; P<0.05): lower | Overall FCR compared to the challenged no feed additive control ([8]; P<0.05): reduced | necrotic enteritis related mortality compared to the challenged control birds ([8]; P<0.05): lower | Necrotic enteritis related mortality, % ([8]; challenged, BMD 50.0 g/ton, combination 0.30 lb/ton + 0.5 lb/ton + 3 × 10^5 cfu/g): 2^b % | FCR compared to the challenge control birds ([8]; d 14-28, P<0.05): decreased | Body weight gain compared to the challenged no feed additive control group ([8]; in vivo): not impacted | controlling C. perfringens disease challenge ([8]; in vivo): effective
